Measurements published in ChEMBL document CHEMBL1158214, “Rollinecins A and B: two new bioactive annonaceous acetogenins from Rollinia mucosa” (J Nat Prod, 1996).
≈ marks a conversion by molar mass, not a printed value.

Key:
A498 = assay: Cytotoxicity against human A498 cells; type: functional
[1] = Toxicity in brine shrimp; type: organism-based; conditions: artemia, in vivo
A549 = assay: Cytotoxicity against human A549 cells; type: functional
MIA PaCa-2 = assay: Cytotoxicity against human MIAPaCa2 cells; type: functional
PC-3 = assay: Cytotoxicity against human PC3 cells; type: functional
HT-29 = assay: Cytotoxicity against human HT29 cells; type: functional; conditions: read-out: ED50 (the source's name)
MCF7 = assay: Cytotoxicity against human MCF7 cells; type: functional; conditions: read-out: ED50 (the source's name)

Row | Structure (SMILES) | ED50 (A498) [×10⁻⁴ ug/ml] | LC50 [1] [µg/mL] | ED50 (A549) [×10⁻⁴ ug/ml] | ED50 (MIA PaCa-2) | ED50 (PC-3) [×10⁻⁴ ug/ml] | EC50 (HT-29) [µg/mL] | EC50 (MCF7) [µg/mL] | EC50 (A498; Homo sapiens, A498, read-out: ED50 (the source's name)) [µg/mL] | EC50 (A549; Homo sapiens, A549, read-out: ED50 (the source's name)) [µg/mL] | EC50 (MIA PaCa-2; Homo sapiens, MIA PaCa-2, read-out: ED50 (the source's name)) [µg/mL] | EC50 (PC-3; Homo sapiens, PC-3, read-out: ED50 (the source's name)) [µg/mL]
1 | CCCCCCCCCCCC[C@H](O)[C@H]1CC[C@H]([C@H](O)CC[C@H](O)CCCCCCCCC[C@@H](O)CC2=C[C@H](C)OC2=O)O1 [ROLLINECIN A] | 7.25 | 0.31 (≈ 0.496 µM) | 1.14 | 3.47 ×10⁻⁵ ug/ml | 2.62 | 1.6 (≈ 2.56 µM) | 1.44 (≈ 2.3 µM) | – | – | – | –
2 | CCCCCCCCCCCC[C@H](O)[C@H]1CC[C@H]([C@H](O)CC[C@@H](O)CCCCCCCCC[C@@H](O)CC2=C[C@H](C)OC2=O)O1 [ROLLINECIN B] | 2.29 | 0.13 (≈ 0.208 µM) | 4.23 | 2.53 ×10⁻⁴ ug/ml | 3.62 | 1.44 (≈ 2.3 µM) | 2.72 (≈ 4.35 µM) | – | – | – | –
3 | COc1cccc2c1C(=O)c1c(O)c3c(c(O)c1C2=O)C[C@@](O)(C(=O)CO)C[C@@H]3O[C@H]1C[C@H](N)[C@H](O)[C@H](C)O1 [DOXORUBICIN] | – | – | – | – | – | 0.0193 (≈ 0.0355 µM) | 0.0968 (≈ 0.178 µM) | 0.0019 (≈ 0.0035 µM) | 0.00157 (≈ 0.00289 µM) | 0.0224 (≈ 0.0412 µM) | 0.0281 (≈ 0.0517 µM)
